The source of these data is patent US11787810B2, “Diacylglyceride O-acyltransferase 2 inhibitors” (Merck Sharp & Dohme Corp., priority 2020, dated 2023).

Structures are written as SMILES.

For this assay, the target named is human DGAT2 (hDGAT2) (Homo sapiens (Human), UniProt Q96PD7). Put plainly: DGAT2 enzymatic activity assay (13C18-triolein formation, LC/MS/MS). The assay is classed as biochemical. To be noted: hDGAT2 Sf-9 membrane prep, 25 μM diolein, 5 μM 13C oleoyl-CoA; read-out: Human DGAT2 IC50. Here is the method: Sf-9 insect cells were maintained in Grace's insect cell culture medium with 10% heated-inactivated fetal bovine serum, 1% Pluronic F-68 and 0.14 μg/ml Kanamycine sulfate at 27° C. in a shaker incubator. After infection with untagged baculovirus expressing human DGAT2 (hDGAT2) at multiplicity of infection (MOI) 3 for 48 hours, cells were harvested. Cell pellets were suspended in buffer containing 10 mM Tris-HCl pH 7.5, 1 mM EDTA, 250 mM sucrose and Complete Protease Inhibitor Cocktail (Sigma Aldrich), and sonicated on ice. Cell debris were removed by centrifugation at 2000×g for 15 minutes. Membrane fractions were isolated by ultracentrifugation (100,000×g), resuspended in the same buffer, and frozen (−80° C.) for later use. The protein concentration was determined with the Pierce™ BCA Protein Assay Kit (Thermo Fisher Scientific). Expression of protein levels was analyzed by immunoblotting with rabbit anti-DGAT2 antibody (Abcam, ab102831) and donkey anti-rabbit IgG H&L Alexa Fluor® 647 (Abcam, ab150075) followed by detection using Typhoon FLA9000 (GE Healthcare).
human DGAT2 (hDGAT2), sequence (Q96PD7 whole entry): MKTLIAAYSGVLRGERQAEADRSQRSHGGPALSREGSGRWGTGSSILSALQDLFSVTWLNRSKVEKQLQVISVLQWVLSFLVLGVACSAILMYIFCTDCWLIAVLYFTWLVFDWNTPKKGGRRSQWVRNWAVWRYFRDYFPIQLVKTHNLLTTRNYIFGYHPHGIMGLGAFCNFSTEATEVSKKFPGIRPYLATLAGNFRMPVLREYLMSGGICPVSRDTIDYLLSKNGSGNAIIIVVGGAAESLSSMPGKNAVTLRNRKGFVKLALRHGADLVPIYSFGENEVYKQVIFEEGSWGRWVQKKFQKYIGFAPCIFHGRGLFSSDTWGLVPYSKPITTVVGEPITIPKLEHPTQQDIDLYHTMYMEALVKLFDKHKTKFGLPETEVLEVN
LC/MS/MS analyses were performed using Thermal Fisher's LX4-TSQ Vantage system. This system consists of an Agilent binary high-performance liquid chromatography (HPLC) pumps and a TSQ Vantage triple quadrupole MS/MS instrument. For each sample, 2 μL samples from the top organic layer of in-plate liquid-liquid extraction were injected onto a Thermo Betabasic C4 column (2.1 mm×20 mm, 5 μm particle size). The samples were then eluted using the following conditions; mobile phase: Isopropanol:acetonitrile/10 mM ammonium formate=50/35/15 (v/v/v), flow rate: 0.8 mL/min, temperature: 25° C. Data was acquired in positive mode using a heated electrospray ionization (HESI) interface. The operational parameters for the TSQ Vantage MS/MS instrument were a spray voltage of 3000 V, capillary temperature of 280° C., vaporizer temperature 400° C., sheath gas 45 arbitrary unit, Aux gas 10 arbitrary units, S-lens 165 and collision gas 1.0 mTorr. […] (SRM) chromatograms of ^13C18-triolein (Q1: 920.8>Q3:621.3) and internal standard ^13C21-triolein (Q1: 923.8>Q3:617.3) were collected for 33 sec. The peak area was integrated by Xcalibur Quan software. The ratio between the ^13C18triolein generated in the reaction and spiked in internal standard ^13C21-triolein was used to generate percentage inhibition and IC50 values. Compound percentage inhibition was calculated by the following formula: Inhibition %=1-[(compound response−low control)/(high control−low control)]×100%. Potent compounds were titrated and IC50 were calculated by 4 parameter sigmoidal curve fitting formula.
DGAT2 activity was determined by measuring the amount of enzymatic product ^13C18-triolein (^13C-1,2,3-Tri(cis-9-octadecenoyl)glycerol) using the membrane prep mentioned above. The assay was carried out in ABgene 384-well assay plates in a final volume of 25 μL at rt. The assay mixture contained the following: assay buffer (100 mM Tris·Cl, pH 7.0, 20 mM MgCl2, 5% ethanol), 25 μM of diolein, 5 μM of ^13C oleoyl-CoA and 8 ng/μL of DGAT2 membrane.
What is called IC50 is the midpoint of a concentration-inhibition curve. As for `CC1(NC(=O)c2cnc3c(-c4cccc(OC(F)F)c4)nn(CC(O)C(F)(F)F)c3c2)CS(=O)(=O)C1` (single isomer, unassigned) [Example 67a, 3-(3-(difluoromethoxy)phenyl)-N-(3-methyl-1,1-dioxidothietan-3-yl)-1-(3,3,3-trifluoro-2-hydroxypropyl)-1H-pyrazolo[4,3-b]pyridine-6-carboxamide], the IC50 is 73 nM. In the case of `CC1(NC(=O)c2cnc3c(-c4cccc(OC(F)F)c4)nn(CC(O)C(F)(F)F)c3c2)CS(=O)(=O)C1` (single isomer, unassigned) [Example 67b, 3-(3-(difluoromethoxy)phenyl)-N-(3-methyl-1,1-dioxidothietan-3-yl)-1-(3,3,3-trifluoro-2-hydroxypropyl)-1H-pyrazolo[4,3-b]pyridine-6-carboxamide], the IC50 turned out to be 90 nM. With `CC(O)Cn1nc(-c2cccc(OC(F)F)c2)c2ncc(C(=O)NC3(C)CS(=O)(=O)C3)cc21` (single isomer, unassigned) [Example 68a, 3-(3-(difluoromethoxy)phenyl)-1-(2-hydroxypropyl)-N-(3-methyl-1,1-dioxidothietan-3-yl)-1H-pyrazolo[4,3-b]pyridine-6-carboxamide] the figure was 18 nM; with `CC(O)Cn1nc(-c2cccc(OC(F)F)c2)c2ncc(C(=O)NC3(C)CS(=O)(=O)C3)cc21` (single isomer, unassigned) [Example 68b, 3-(3-(difluoromethoxy)phenyl)-1-(2-hydroxypropyl)-N-(3-methyl-1,1-dioxidothietan-3-yl)-1H-pyrazolo[4,3-b]pyridine-6-carboxamide], 179 nM; with `CC(C)n1nc(-c2cccc(OC(F)F)c2)c2ncc(C(=O)NC3(C(C)O)CCOCC3)cc21` (single isomer, unassigned) [Example 73a, 3-(3-(difluoromethoxy)phenyl)-N-(4-(1-hydroxyethyl)tetrahydro-2H-pyran-4-yl)-1-isopropyl-1H-pyrazolo[4,3-b]pyridine-6-carboxamide], 119 nM. With `CC(C)n1nc(-c2cccc(OC(F)F)c2)c2ncc(C(=O)NC3(C(C)O)CCOCC3)cc21` (single isomer, unassigned) [Example 73b, 3-(3-(difluoromethoxy)phenyl)-N-(4-(1-hydroxyethyl)tetrahydro-2H-pyran-4-yl)-1-isopropyl-1H-pyrazolo[4,3-b]pyridine-6-carboxamide] the figure was 74 nM; with `CC1(NC(=O)c2cnc3c(-c4cccc(OC(F)F)c4)nn(C4CCOCC4F)c3c2)CS(=O)(=O)C1` (single isomer, unassigned) [Example 75a, 3-(3-(difluoromethoxy)phenyl)-1-(3-fluorotetrahydro-2H-pyran-4-yl)-N-(3-methyl-1,1-dioxidothietan-3-yl)-1H-pyrazolo[4,3-b]pyridine-6-carboxamide], 29 nM. With `CC1(NC(=O)c2cnc3c(-c4cccc(OC(F)F)c4)nn(C4CCOCC4F)c3c2)CS(=O)(=O)C1` (single isomer, unassigned) [Example 75b, 3-(3-(difluoromethoxy)phenyl)-1-(3-fluorotetrahydro-2H-pyran-4-yl)-N-(3-methyl-1,1-dioxidothietan-3-yl)-1H-pyrazolo[4,3-b]pyridine-6-carboxamide] the figure was 9 nM; with `CC1(NC(=O)c2cnc3c(-c4cccc(OC(F)F)c4)nn(C4CCOC(C(F)(F)F)C4)c3c2)CS(=O)(=O)C1` (single isomer, unassigned) [Example 76a, 3-(3-(difluoromethoxy)phenyl)-N-(3-methyl-1,1-dioxidothietan-3-yl)-1-(2-(trifluoromethyl)tetrahydro-2H-pyran-4-yl)-1H-pyrazolo[4,3-b]pyridine-6-carboxamide], 21 nM; with `CC1(NC(=O)c2cnc3c(-c4cccc(OC(F)F)c4)nn(C4CCOC(C(F)(F)F)C4)c3c2)CS(=O)(=O)C1` (single isomer, unassigned) [Example 76b, 3-(3-(difluoromethoxy)phenyl)-N-(3-methyl-1,1-dioxidothietan-3-yl)-1-(2-(trifluoromethyl)tetrahydro-2H-pyran-4-yl)-1H-pyrazolo[4,3-b]pyridine-6-carboxamide], 211 nM.

Consider `CC1(NC(=O)c2cnc3c(-c4cccc(OC(F)F)c4)nn(C4CCOC(C)(C)C4)c3c2)CS(=O)(=O)C1` (single isomer, unassigned) [Example 77a, 3-(3-(difluoromethoxy)phenyl)-1-(2,2-dimethyltetrahydro-2H-pyran-4-yl)-N-(3-methyl-1,1-dioxidothietan-3-yl)-1H-pyrazolo[4,3-b]pyridine-6-carboxamide], for which the IC50 was found to be 140 nM. The result for `CC1(NC(=O)c2cnc3c(-c4cccc(OC(F)F)c4)nn(C4CCOC(C)(C)C4)c3c2)CS(=O)(=O)C1` (single isomer, unassigned) [Example 77b, 3-(3-(difluoromethoxy)phenyl)-1-(2,2-dimethyltetrahydro-2H-pyran-4-yl)-N-(3-methyl-1,1-dioxidothietan-3-yl)-1H-pyrazolo[4,3-b]pyridine-6-carboxamide] reads 7.4 nM; that for `CC(O)C(C)n1nc(-c2cccc(OC(F)F)c2)c2ncc(C(=O)NC3(C)CS(=O)(=O)C3)cc21` (single isomer, unassigned) [Example 78a, 3-(3-(difluoromethoxy)phenyl)-1-(3-hydroxybutan-2-yl)-N-(3-methyl-1,1-dioxidothietan-3-yl)-1H-pyrazolo[4,3-b]pyridine-6-carboxamide], 1730 nM.

For `CC(O)C(C)n1nc(-c2cccc(OC(F)F)c2)c2ncc(C(=O)NC3(C)CS(=O)(=O)C3)cc21` (single isomer, unassigned) [Example 78b, 3-(3-(difluoromethoxy)phenyl)-1-(3-hydroxybutan-2-yl)-N-(3-methyl-1,1-dioxidothietan-3-yl)-1H-pyrazolo[4,3-b]pyridine-6-carboxamide], the 50% inhibitory concentration (IC50) was 4.4 nM. The result for `CC(O)C(C)n1nc(-c2cccc(OC(F)F)c2)c2ncc(C(=O)NC3(C)CS(=O)(=O)C3)cc21` (single isomer, unassigned) [Example 78c, 3-(3-(difluoromethoxy)phenyl)-1-(3-hydroxybutan-2-yl)-N-(3-methyl-1,1-dioxidothietan-3-yl)-1H-pyrazolo[4,3-b]pyridine-6-carboxamide] reads 121 nM; that for `CC(O)C(C)n1nc(-c2cccc(OC(F)F)c2)c2ncc(C(=O)NC3(C)CS(=O)(=O)C3)cc21` (single isomer, unassigned) [Example 78d, 3-(3-(difluoromethoxy)phenyl)-1-(3-hydroxybutan-2-yl)-N-(3-methyl-1,1-dioxidothietan-3-yl)-1H-pyrazolo[4,3-b]pyridine-6-carboxamide], 47 nM; that for `CC1(C#N)CC(n2nc(-c3cccc(OC(F)F)c3)c3ncc(C(=O)NC4(C)CS(=O)(=O)C4)cc32)C1` (single isomer, unassigned) [Example 87a, 1-(3-cyano-3-methylcyclobutyl)-3-(3-(difluoromethoxy)phenyl)-N-(3-methyl-1,1-dioxidothietan-3-yl)-1H-pyrazolo[4,3-b]pyridine-6-carboxamide], 70 nM.
